Source: US20230069722A1, “TUBULYSINS AND PROTEIN-TUBULYSIN CONJUGATES” (priority 2020, published 2023)
Like-named read-outs stand apart in the source and are kept apart here. Where a SMILES comes first, the peptide text is derived from it. [ ]: non-standard residue; d: D form. The star is where a group is joined. Dolaproine = CO[C@@H]([C@@H]1CCCN1)[C@@H](C)C(=O)O; Dil = CC[C@H](C)[C@H](NC)[C@@H](CC(=O)O)OC; X1 = C[C@@H](N*)[C@@H](O)c1ccccc1; NMeV = CN[C@H](C(=O)O)C(C)C

Key:
[1] = test system: SK-BR-3 human breast adenocarcinoma cell line; assay: SK-BR-3 anti-proliferation / cell kill assay (CellTiter-Glo, 144 hrs); format: cell-based; conditions: for IC50: Homo sapiens, SK-BR-3, read-out: SK-BR-3 IC50; for SK-BR-3 Ratio to Xa = H: IC50 ratio to parent payload with Xa = H
Protocol: Anti-proliferation assays were performed using a SK-BR-3 human breast adenocarcinoma (pleural effusion) cell line. The cells were grown in McCoy's 5a Medium supplemented with 10% FBS, penicillin/streptomycin and L-glutamine. Cells were seeded 1000/well in 96-well plate in 80ul complete growth media one day prior to adding ADCs and incubated at 37° C. 5% CO2 overnight.
The ADCs were 1:3 serially diluted 10 points in assay media (Opti-MEM+0.1% BSA). The concentrations of the testing ADCs cover the range of 1 nM to ˜1000 nM and also starting from different concentrations based on the cell killing potency in order to see EC50 covers, leaving the last well (10th) as blank (no ADC or compound). ADCs were first 1:3 serially diluted 10 points in DMSO starting from […] (the starting concentration of each ADC is different according to the EC50s), leaving the last well as blank (containing only DMSO). 10 μl DMSO-diluted compound was transferred to 990 μl assay media (Opti-MEM+0.1% BSA) in a 96-well deep well dilution plate. 20 μl assay media-diluted ADC was added to cells. Cells were incubated at 37° C. […] for 6 days (144 hrs). Plates were developed by adding 100 μl CTG reagent/well to the cells CellTiter-Glo®, from Promega, Cat. No G7573), shaken at room temperature for 10 min, sealed with white adhesive bottom seal and luminescence was read with Envision. Cell kill %=[1−(T144sample−T144blank)/(T144DMSO−T144blank)]×100%, wherein T144 is the data at 144 hours.
The table below provides the drug-antibody ratios (DARs) for conjugates 1-37, along with the EC50 results from the SKBR assays for the same conjugates. The following linker-payloads (from Table P1) were prepared as described in PCT/US2019/068185, the content of which is hereby incorporated by reference in its entirety: LP4-Ve, LP4-Ve, LP25-Ve, LP25-Ve, LP26-Ve, LP26-Ve, LP17-Ve, LP13-Ve, LP19-Ve, LP2-Ve, LP21-Ve, LP6-Vb, LP24-Vb, LP23-Vb, and LP15-VIh.

HCT15 cells = assay: MDR cell based killing assay, HCT15 cells with or without Verapamil (CellTiter-Glo); design: species or system human; conditions: for IC50: Homo sapiens; for HCT-15 with verapamil Ratio to Xa = H / HCT-15 Ratio to Xa = H: IC50 ratio to parent payload with Xa = H; for HCT-15 Ratio to Xa = H: without verapamil
Method in brief: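 CellTiter-Glo luminescence after 5-day exposure gave viability of 1000 HCT15 cells per well, grown in RPMI/10% FBS ± 5 ug/mL Verapamil. Payload tested from 100 nM down to 15 pM in threefold steps; four-parameter logistic IC50 in molar; MDR shift expressed as −Verapamil/+Verapamil IC50 ratio.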

C4-2 cells [2] = assay: ADC cell based killing assay, C4-2 cells (anti-STEAP2 ADCs); design: species or system human
Protocol: (§1) To test the ability of the disclosed tubulysin payloads or prodrug payloads to kill human cell lines, an in vitro cytotoxicity assay can be performed. In vitro cytotoxicity of the disclosed payloads, as well as reference compounds, are evaluated using the CellTiter-Glo Assay Kit (Promega, Cat # G7573), in which the quantity of ATP present is used to determine the number of viable cells in culture. For the assay, C4-2, HEK293, or T47D cells are seeded at 4000 cells/well on Nunclon white 96-well plates in complete growth medium (DME high glucose:Ham's F12 at 4:1, 10% FBS, 100 units/ml Penicillin, 100 ug/ml streptomycin, 53 ug/ml glutatmine, 10 ug/ml insulin, 220 ng/ml biotin, 12.5 pg/ml T3, 12.5 ug/ml Adenine, 4 ug/ml transferrin for C42 cells; DME high glucose, 10% FBS, 100 units/ml Penicillin, 100 ug/ml streptomycin, 53 ug/ml glutatmine for HEK293; RPMI, 10% FBS, 100 units/ml Penicillin, 100 ug/ml streptomycin, 53 ug/ml glutatmine, 10 ug/ml insulin, 10 mM HEPEs, 200 nM Sodium Pyruvate for T47D cells) and grown overnight at 37° C. in 5% CO2. […] Relative luminescence units (RLU) can be determined on a Victor plate reader (PerkinElmer). The IC50 values are determined from a four-parameter logistic equation over a 10-point response curve (GraphPad Prism). […]

C4-2 cells [3] = assay: Cell-based killing assay of payloads, C4-2 cells (CellTiter-Glo); design: species or system human
Protocol: as §1

[4] = HCT-15, read-out: HCT-15 with verapamil IC50
[5] = at the maximum concentration tested

SMILES | IC50 [1] [nM] | SK-BR-3 Ratio to Xa = H [1] [x] | IC50 (HCT15 cells; HCT-15, read-out: HCT-15 IC50) [nM] | IC50 (HCT15 cells; [4]) [nM] | HCT-15 with verapamil Ratio to Xa = H (HCT15 cells) [x] | HCT-15 Ratio to Xa = H (HCT15 cells) [x] | IC50 (C4-2 cells [2]; ADCs and reference payload) [nM] | maximum percent killing, C4-2 cells (C4-2 cells [2]; [5]) [%] | IC50 (C4-2 cells [3]; 5-day incubation) [nM] | maximum % cell killing, C4-2 cells (C4-2 cells [3]; [5]) [%] | HCT-15 IC50/HCT-15+Verapamil IC50 ratio (HCT15 cells; IC50 without Verapamil divided by IC50 with Verapamil)
CCCCCCN(C(=O)[C@@H](NC(=O)[C@H]1CCCCN1C)[C@@H](C)CC)[C@H](C[C@@H](OC(C)=O)c1nc(C(=O)N[C@@H](Cc2ccc(NCCN)cc2)CC(C)(C)C(=O)O)cs1)C(C)C [Compound P30, (4S)-4-({2-[(1R,3R)-1-(acetyloxy)-3-[(2S,3S)—N-hexyl-3-methyl-2-{[(2R)-1-methylpiperidin-2-yl]formamido}pentanamido]-4-methylpentyl]-1,3-thiazol-4-yl}formamido)-5-{4-[(2-aminoethyl)amino]phenyl}-2,2-dimethylpentanoic Acid] | 0.45 | 34 | 2.64 | 0.42 | 22 | 155 |  |  |  |  | 
CCCCCCN(C(=O)[C@@H](NC(=O)[C@H]1CCCCN1C)[C@@H](C)CC)[C@H](C[C@@H](OC(C)=O)c1nc(C(=O)N[C@@H](Cc2ccc(NC(=O)CN)cc2)CC(C)(C)C(=O)O)cs1)C(C)C [Compound P28, (4S)-4-({2-[(1R,3R)-1-(acetyloxy)-3-[(2S,3S)—N-hexyl-3-methyl-2-{[(2R)-1-methylpiperidin-2-yl]formamido}pentanamido]-4-methylpentyl]-1,3-thiazol-4-yl}formamido)-5-[4-(2-aminoacetamido)phenyl]-2,2-dimethylpentanoic Acid] | 0.03 | 2.5 | 0.17 | 0.11 | 5.8 | 6.9 |  |  |  |  | 
CCCCCCN(C(=O)[C@@H](NC(=O)[C@H]1CCCCN1)[C@@H](C)CC)[C@H](C[C@@H](OCC)c1nc(C(=O)N[C@@H](Cc2ccc(NC(=O)CN)cc2)CC(C)(C)C(=O)O)cs1)C(C)C [Compound P32, (4S)-5-[4-(2-aminoacetamido)phenyl]-4-({2-[(1R,3R)-1-ethoxy-3-[(2S,3S)—N-hexyl-3-methyl-2-[(2R)-piperidin-2-ylformamido]pentanamido]-4-methylpentyl]-1,3-thiazol-4-yl}formamido)-2,2-dimethylpentanoic Acid] | > 1 |  | > 100 | > 100 |  |  |  |  |  |  | 
CCCCCCN(C(=O)[C@@H](NC(=O)[C@H]1CCCCN1)[C@@H](C)CC)[C@H](C[C@@H](OC(C)=O)c1nc(C(=O)N[C@@H](Cc2ccc(NC(=O)CN)c(F)c2)CC(C)(C)C(=O)O)cs1)C(C)C [Compound P27, (4S)-4-({2-[(1R,3R)-1-(acetyloxy)-3-[(2S,3S)—N-hexyl-3-methyl-2-[(2R)-piperidin-2-ylformamido]pentanamido]-4-methylpentyl]-1,3-thiazol-4-yl}formamido)-5-[4-(2-aminoacetamido)-3-fluorophenyl]-2,2-dimethylpentanoic Acid] | 0.11 | 3.9 | 1.48 | 0.09 | 3.8 | 6.4 |  |  |  |  | 
CCCCCCN(C(=O)[C@@H](NC(=O)[C@H]1CCCCN1C)[C@@H](C)CC)[C@H](C[C@@H](OCC)c1nc(C(=O)N[C@@H](Cc2ccc(NC(=O)CN)cc2)CC(C)(C)C(=O)O)cs1)C(C)C [Compound P31, (4S)-5-[4-(2-aminoacetamido)phenyl]-4-({2-[(1R,3R)-1-ethoxy-3-[(2S,3S)—N-hexyl-3-methyl-2-{[(2R)-1-methylpiperidin-2-yl]formamido}pentanamido]-4-methylpentyl]-1,3-thiazol-4-yl}formamido)-2,2-dimethylpentanoic Acid] | 0.07 | 2.4 | 0.81 | 0.29 | 4.3 | 9.7 |  |  |  |  | 
CCCCCCN(C(=O)[C@@H](NC(=O)[C@H]1CCCCN1C)[C@@H](C)CC)[C@H](C[C@@H](OC(C)=O)c1nc(C(=O)N[C@@H](Cc2ccc(NC(=O)CN)c(F)c2)CC(C)(C)C(=O)O)cs1)C(C)C [Compound P25, (4S)-4-({2-[(1R,3R)-1-(acetyloxy)-3-[(2S,3S)—N-hexyl-3-methyl-2-{[(2R)-1-methylpiperidin-2-yl]formamido}pentanamido]-4-methylpentyl]-1,3-thiazol-4-yl}formamido)-5-[4-(2-aminoacetamido)-3-fluorophenyl]-2,2-dimethylpentanoic Acid] | 0.03 | 1.9 | 0.08 | 0.04 | 4.0 | 4.0 |  |  |  |  | 
CCCCCCN(C(=O)[C@@H](NC(=O)[C@H]1CCCCN1C)[C@@H](C)CC)[C@H](C[C@@H](O)c1nc(C(=O)N[C@@H](Cc2ccc(NC(=O)CN)c(F)c2)CC(C)(C)C(=O)O)cs1)C(C)C [Compound P24, (4S)-5-[4-(2-aminoacetamido)-3-fluorophenyl]-4-({2-[(1R,3R)-3-[(2S,3S)—N-hexyl-3-methyl-2-{[(2R)-1-methylpiperidin-2-yl]formamido}pentanamido]-1-hydroxy-4-methylpentyl]-1,3-thiazol-4-yl}formamido)-2,2-dimethylpentanoic Acid] | 0.86 | 22 | 15.5 | 0.82 | 3.2 | 5.2 |  |  |  |  | 
CC[C@H](C)[C@@H]([C@@H](CC(=O)N1CCC[C@H]1[C@H](OC)[C@@H](C)C(=O)N[C@H](C)[C@@H](O)c1ccccc1)OC)N(C)C(=O)[C@@H](NC(=O)[C@@H](NC)C(C)C)C(C)C [MMAE, Monomethyl auristatin E] (H-[NMeV]V[Dil][Dolaproine]-X1) |  |  |  |  |  |  | 0.22 | 99 | 0.283 | 93.7 | 23.7
CCCCCCN(C(=O)[C@@H](NC(=O)[C@H]1CCCCN1C)[C@@H](C)CC)[C@H](C[C@@H](OCC)c1nc(C(=O)N[C@@H](Cc2ccc(NC(=O)CN)c(F)c2)CC(C)(C)C(=O)O)cs1)C(C)C [Compound P26, (4S)-5-[4-(2-aminoacetamido)-3-fluorophenyl]-4-({2-[(1R,3R)-1-ethoxy-3-[(2S,3S)—N-hexyl-3-methyl-2-{[(2R)-1-methylpiperidin-2-yl]formamido}pentanamido]-4-methylpentyl]-1,3-thiazol-4-yl}formamido)-2,2-dimethylpentanoic Acid] | 0.05 | 2.6 | 0.25 | 0.05 | 2.8 | 4.9 |  |  |  |  | 
